The results in this text go back to ChEMBL document CHEMBL1129124, “Thromboxane modulating agents. 2. Thromboxane receptor antagonists derived from the thromboxane synthase inhibitor dazmegrel” (Bioorg Med Chem Lett, 1996).

Structures are written as SMILES.

The target of one test is T1, Thromboxane-A synthase (Homo sapiens, UniProt P24557).
T1 sequence (P24557 whole entry): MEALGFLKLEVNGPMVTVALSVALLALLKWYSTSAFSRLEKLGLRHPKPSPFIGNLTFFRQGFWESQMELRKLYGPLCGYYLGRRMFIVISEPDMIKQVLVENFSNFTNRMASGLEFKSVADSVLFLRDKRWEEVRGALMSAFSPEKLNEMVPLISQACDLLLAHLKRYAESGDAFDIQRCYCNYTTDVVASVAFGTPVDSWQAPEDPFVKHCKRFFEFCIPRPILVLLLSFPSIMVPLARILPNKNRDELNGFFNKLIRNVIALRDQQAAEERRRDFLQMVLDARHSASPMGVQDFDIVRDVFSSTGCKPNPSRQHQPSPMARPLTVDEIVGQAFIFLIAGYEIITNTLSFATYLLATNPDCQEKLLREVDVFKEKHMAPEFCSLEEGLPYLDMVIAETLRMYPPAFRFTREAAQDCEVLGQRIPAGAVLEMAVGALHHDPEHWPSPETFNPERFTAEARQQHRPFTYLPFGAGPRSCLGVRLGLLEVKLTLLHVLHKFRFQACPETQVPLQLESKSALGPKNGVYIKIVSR
The test is described as follows: Inhibitory activity against human platelet microsomal TXA2 synthase.

Another test deals with T2, Thromboxane A2 receptor (Rattus norvegicus, UniProt P34978).
T2 sequence (P34978 whole entry): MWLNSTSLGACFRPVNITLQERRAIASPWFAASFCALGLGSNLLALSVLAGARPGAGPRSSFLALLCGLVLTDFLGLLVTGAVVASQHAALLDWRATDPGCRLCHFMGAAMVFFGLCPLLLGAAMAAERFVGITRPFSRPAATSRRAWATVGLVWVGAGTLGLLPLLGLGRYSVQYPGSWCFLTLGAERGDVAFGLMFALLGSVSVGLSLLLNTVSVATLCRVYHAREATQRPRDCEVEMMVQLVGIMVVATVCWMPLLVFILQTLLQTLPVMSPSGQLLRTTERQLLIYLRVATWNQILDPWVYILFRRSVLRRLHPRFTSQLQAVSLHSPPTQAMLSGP
In words: Compound was tested for TXA2 receptor antagonism by measuring its ability to inhibit contraction of rat aorta induced by the stable TXA2 agonist U-46,619 at 1 umol. Particulars: read-out: pA2 (converted). It is filed as functional, tissue-based.

The term IC50 denotes the concentration that gives 50% inhibition. A higher IC50 goes with weaker potency.

For `O=C(O)CCn1cc(Cn2ccnc2)c2cc(NS(=O)(=O)c3ccc(F)cc3)ccc21`, the IC50 on Thromboxane-A synthase came out at 34 nM. For the same compound, the Kb on Thromboxane A2 receptor was 6.31 nM.
Regarding `O=C(O)CCn1ccc2cc(NS(=O)(=O)c3ccc(F)cc3)ccc21`, the Kb at Thromboxane A2 receptor was 3.72 nM.
For `COc1ccc(S(=O)(=O)Nc2ccc3c(c2)c(Cc2ccc(F)cc2)cn3CCC(=O)O)cc1`, the Kb at Thromboxane A2 receptor was 0.174 nM.
With `O=C(O)CCn1cc(Cc2ccc(F)cc2)c2cc(NS(=O)(=O)c3ccc(Cl)cc3)ccc21`, on Thromboxane A2 receptor, the Kb was 0.234 nM.
Consider `O=C(O)CCn1cc(Cc2ccc(F)cc2)c2cc(NS(=O)(=O)c3ccccc3)ccc21`, for which the Kb at Thromboxane A2 receptor was 0.676 nM.
Still for that read-out and setting: next, `O=C(O)CCCc1ccc(NS(=O)(=O)c2ccc(Cl)cc2)cc1`: 100 nM.
`Cc1c(Cn2ccnc2)c2cc(NS(=O)(=O)c3ccc(F)cc3)ccc2n1CCC(=O)O` came in with a 50% inhibitory concentration (IC50) at Thromboxane-A synthase of 19 nM. The Kb at Thromboxane A2 receptor is 3800 nM.
As to `Cc1ccc(S(=O)(=O)Nc2ccc3c(c2)c(Cc2ccc(F)cc2)cn3CCC(=O)O)cc1`, the Kb on Thromboxane A2 receptor was 0.269 nM.
Same read-out and setting: the figure for `O=C(O)CCn1ccc2cc(NS(=O)(=O)c3ccc(Cl)cc3)ccc21` is 2.75 nM.
At Thromboxane-A synthase, `O=C(O)CCn1cc(Cc2cccnc2)c2cc(NS(=O)(=O)c3ccc(F)cc3)ccc21` returned an IC50 of 48 nM. At Thromboxane A2 receptor, the Kb was 1.41 nM.
`O=C(O)CCn1cc(Cc2ccc(F)cc2)c2cc(NS(=O)(=O)c3ccc(F)cc3)ccc21`: the Kb on Thromboxane A2 receptor was 0.479 nM.
The same measure, in the same setting: the figure for `Cc1c(Cn2ccnc2)c2ccccc2n1CCC(=O)O` [DAZMEGREL] is above 1000 nM.
